The values below come from PMC12362587, “Untargeted Diversity-Oriented Synthesis for the Discovery of New Antitumor Agents: An Integrated Approach of Inverse Virtual Screening, Bioinformatics, and Omics for Target Deconvolution” (Journal of Medicinal Chemistry, 2025).

One series is described as follows: MTT cell viability assay. The series is classed as cell-based, human. The settings on record: human, HaCaT keratinocyte cells (healthy control line), 24 h, compounds 0.01–40 μM, healthy control line, read-out: In Vitro Cytotoxicity, EC50 ± SD, HaCaT. An excerpt:
(§1) Initially, we phenotypically screened the synthesized compounds over a panel of tumor cell lines composed of HEPG2, A375, SHSY5Y, MCF7, and A549 derived from liver tumor, melanoma, neuroblastoma, breast cancer, and lung adenocarcinoma, respectively. We also considered the HaCaT cell line, coming from keratinocytes, as a healthy control line. As reference, cytotoxic chemotherapeutic agent 5-fluorouracil (5-FU) has been used. The results obtained performing the MTT (3-(4,5-dimethylthiazolyl-2)-2,5-diphenyltetrazolium bromide) assay are summarized in Table .
(§2) The human neuroblastoma SHSY5Y, melanoma A375, human breast cancer MCF7, nonsmall lung cancer A549, and human epidermal keratinocyte HaCaT cell lines were obtained from ATCC and were grown in Dulbecco’s Modified Eagle Medium (DMEM) supplemented with 10% (v/v) FBS, 2 mM L-glutamine, 100 U/mL penicillin, and 0.1 mg/mL streptomycin.
(§3) Cell viability was established by measuring mitochondrial metabolic activity with MTT. In brief, HEPG2 (1 × 10^4 cells/well), A375 (2 × 10^3 cells/well), HaCaT (3 × 10^3 cells/well), A549 (3 × 10^3 cells/well), SHSY5Y (2 × 10^4 cells/well), and MCF 7 (5 × 10^3 cells/well) were plated into 96-well plates for 24 h, then the compounds (0.01–40 μM) were added. After 24h, cells were replaced with a fresh medium containing 0.5 mg/mL MTT. Cells were incubated 1–3 h at 37 °C, then the medium was discarded, and formazan blue crystals in the cells were dissolved in 100 μL per well of a solution containing isopropanol/HCl 0.1 M. The absorbance was measured at 570 nm using a microplate reader (Multiskan Go, Thermo Scientific, Waltham, MA, USA). Cell viability was expressed as a percentage relative to the untreated cells cultured in medium with 0.1% DMSO and set to 100%, whereas 10% DMSO was used as positive control and set to 0% of viability. The EC50 values were calculated using GraphPad Prism 8.0 software by nonlinear regression of dose–response inhibition.

A further series concerns HaCaT. The series can be described thus: MTT cell viability assay. Format: cell-based, human. The settings on record: in words.
From the text: as §1, §2, §3
On the technique in general: Formazan colour is commonly taken as a measure of viable cells.

The subject of another series is HEPG2. The series can be described thus: MTT cell viability assay. The series is classed as cell-based. The settings on record: Homo sapiens, 24 h, compounds 0.01–40 μM, read-out: In Vitro Cytotoxicity, EC50 ± SD, HEPG2.
From the text: as §1
The human hepatoma HEPG2 cell line was obtained from American Type Culture Collection (ATCC, Rockville, MD, USA). Cells were grown in Eagle’s Minimum Essential Medium (EMEM) supplemented with 10% (v/v) fetal bovine serum (FBS), 2 mM L-glutamine, 1% (v/v) nonessential amino acids, 100 U/mL penicillin, and 0.1 mg/mL streptomycin.
as §3

Another series concerns A375. The experiment in a line: MTT cell viability assay. Format: cell-based. The conditions noted are these: Homo sapiens, A-375, 24 h, compounds 0.01–40 μM, read-out: In Vitro Cytotoxicity, EC50 ± SD, A375.
From the text: as §1, §2, §3

The test system of another series is A549. The experiment in a line: MTT cell viability assay. Format: cell-based. The settings on record: Homo sapiens, 24 h, compounds 0.01–40 μM, read-out: In Vitro Cytotoxicity, EC50 ± SD, A549.
From the text: as §1, §2, §3

For a further series, the system named is MCF7. The series can be described thus: MTT cell viability assay. The settings on record: Homo sapiens, 24 h, compounds 0.01–40 μM, read-out: In Vitro Cytotoxicity, EC50 ± SD, MCF7. The series is classed as cell-based.
From the text: as §1, §2, §3

The test system of the next series is SHSY5Y. The experiment in a line: MTT cell viability assay. The series is classed as cell-based. The conditions noted are these: Homo sapiens, SH-SY5Y, 24 h, compounds 0.01–40 μM, read-out: In Vitro Cytotoxicity, EC50 ± SD, SHSY5Y.
From the text: as §1, §2, §3

Molecules are shown by their SMILES.

A word on the EC50: it is the concentration at which the effect is half-maximal. As to `CC(C)(C)CNC(=O)[C@H](Cc1ccccc1)N1Cc2ccccc2OC1=O` [Compound 8, (S)-N-Neopentyl-2-(2-oxo-2H-benzo[e][1,3]oxazin-3(4H)-yl)-3-phenylpropanamide], in the series “MTT cell viability assay”, the EC50 at 24 h turned out to be 34.8 ± 3.79 µM. The “cytotoxicity effect over the HaCaT cell lines” value in the series with HaCaT is “exhibited cytotoxicity effect”. Further, the EC50 with HEPG2 was 21.4 ± 4.94 µM; with A375 it was 17.5 ± 3.22 µM; in the series on A549 it was 15 ± 2.84 µM; with MCF7, 13.8 ± 2.28 µM; with SHSY5Y it was more than 40 µM.
